{
  "source": "patent US20150284674A1",
  "about": "“CAMPYLOBACTER BACTERIA AND DETECTION” (priority 2012, published 2015)",
  "key": {"[1]": {"tested_on": "Campylobacter novel strains", "assay": "Antimicrobial susceptibility testing by agar dilution method (MIC);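 note: agar dilution MIC on HBA, used in place of the BSAC-recommended Iso-sensitest agar, across a panel of 14 antimicrobials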", "details": "Campylobacter", "description": "Antimicrobial susceptibility testing was performed using the agar dilution method for the Campylobacter novel strains against 14 antimicrobials. […] As the strains were unable to grow on the Iso-sensitest agar (ISA) recommended by the BSAC guidelines, HBA (Table 1) was used as an alternative media."}, "C. fetus subsp. fetus": {"tested_on": "C. fetus subsp. fetus", "details": "taxon 7: C. fetus subsp. fetus; cited from earlier work"}, "C. curvus": {"tested_on": "C. curvus", "details": "taxon 6: C. curvus; cited from earlier work"}, "C. coli": {"tested_on": "C. coli", "details": "taxon 3: C. coli; cited from earlier work"}, "C. insulaenigrae": {"tested_on": "C. insulaenigrae", "details": "taxon 14: C. insulaenigrae; cited from earlier work"}, "C. jejuni subsp. Jejuni": {"tested_on": "C. jejuni subsp. Jejuni", "details": "taxon 16: C. jejuni subsp. Jejuni; cited from earlier work"}, "C. gracilis": {"tested_on": "C. gracilis", "details": "taxon 9: C. gracilis; cited from earlier work"}, "C. cuniculurom": {"tested_on": "C. cuniculurom", "details": "taxon 5: C. cuniculurom; cited from earlier work"}, "[2]": {"tested_on": "novel campylobacter isolates", "assay": "Disc diffusion susceptibility to nalidixic acid and cephalothin (30 μg discs); for Susceptibility to (30 μg disc): key: S, susceptible; R, resistant", "format": "cell-based", "details": "for Susceptibility to (30 μg disc): disc diffusion"}, "C. avium sp. Nov": {"tested_on": "C. avium sp. Nov", "details": "taxon 1: C. avium sp. Nov; cited from earlier work"}, "C. concisus": {"tested_on": "C. concisus", "details": "taxon 4: C. concisus; cited from earlier work"}, "C. showae": {"tested_on": "C. showae", "details": "taxon 21: C. showae; cited from earlier work"}, "C. lanienae": {"tested_on": "C. lanienae", "details": "taxon 17: C. lanienae; cited from earlier work"}, "C. jejuni subsp. Doylei": {"tested_on": "C. jejuni subsp. Doylei", "details": "taxon 15: C. jejuni subsp. Doylei; cited from earlier work"}, "C. lari": {"tested_on": "C. lari", "details": "taxon 18: C. lari; cited from earlier work"}, "C. canadensis": {"tested_on": "C. canadensis", "details": "taxon 2: C. canadensis; cited from earlier work"}, "C. rectus": {"tested_on": "C. rectus", "details": "taxon 20: C. rectus; cited from earlier work"}, "[3]": {"tested_on": "C. fetus subsp. venerealis", "details": "taxon 8: C. fetus subsp. venerealis; cited from earlier work"}, "[4]": {"tested_on": "C. hyointestinalis subsp. hyointestinalis", "details": "taxon 12: C. hyointestinalis subsp. hyointestinalis; cited from earlier work"}, "C. sputorum": {"tested_on": "C. sputorum", "details": "taxon 22: C. sputorum; cited from earlier work"}, "[5]": {"tested_on": "C. hyointestinalis subsp. lawsonii", "details": "taxon 13: C. hyointestinalis subsp. lawsonii; cited from earlier work"}, "C. hominus": {"tested_on": "C. hominus", "details": "taxon 11: C. hominus; cited from earlier work"}, "C. helveticus": {"tested_on": "C. helveticus", "details": "taxon 10: C. helveticus; cited from earlier work"}, "C. mucosalis": {"tested_on": "C. mucosalis", "details": "taxon 19: C. mucosalis; cited from earlier work"}, "C. upsaliensis": {"tested_on": "C. upsaliensis", "details": "taxon 23: C. upsaliensis; cited from earlier work"}},
  "data": [
    {"smiles": "CCn1cc(C(=O)O)c(=O)c2ccc(C)nc21", "note": "[Nalidixic acid]", "values": [
      {"measurement": "MIC50", "setting": "[1]", "value": 4, "unit": "µg/mL"},
      {"measurement": "MIC90", "setting": "[1]", "value": 8, "unit": "µg/mL"},
      {"measurement": "resistance (share of strains positive)", "setting": "C. fetus subsp. fetus", "value": "+ (+, 90-100% of strains positive)"},
      {"measurement": "resistance (share of strains positive)", "setting": "C. curvus", "value": "+ (+, 90-100% of strains positive)"},
      {"measurement": "resistance (share of strains positive)", "setting": "C. coli", "value": "− (−, 0-10% of strains positive)"},
      {"measurement": "resistance (share of strains positive)", "setting": "C. insulaenigrae", "value": "+ (+, 90-100% of strains positive)"},
      {"measurement": "resistance (share of strains positive)", "setting": "C. jejuni subsp. Jejuni", "value": "− (−, 0-10% of strains positive)"},
      {"measurement": "resistance (share of strains positive)", "setting": "C. gracilis", "value": "V (V, 26-74% of strains positive)"},
      {"measurement": "resistance (share of strains positive)", "setting": "C. cuniculurom", "value": "V (V, 26-74% of strains positive)"},
      {"measurement": "susceptibility / resistance of the novel Campylobacter strains, in words", "setting": "[2]; disc diffusion tests, 30 μg disc, novel Campylobacter strains overall", "value": "susceptible"},
      {"measurement": "Susceptibility to (30 μg disc)", "setting": "[2]; strain Farm 1 2009/1", "value": "S"},
      {"measurement": "Susceptibility to (30 μg disc)", "setting": "[2]; strain Farm 1 2009/2", "value": "S"},
      {"measurement": "Susceptibility to (30 μg disc)", "setting": "[2]; strain Farm 1 2011/1", "value": "S"},
      {"measurement": "Susceptibility to (30 μg disc)", "setting": "[2]; strain Farm 1 2011/2", "value": "S"},
      {"measurement": "Susceptibility to (30 μg disc)", "setting": "[2]; strain Farm 1 2011/3", "value": "S"},
      {"measurement": "Susceptibility to (30 μg disc)", "setting": "[2]; strain Farm 1 2011/4", "value": "S"},
      {"measurement": "Susceptibility to (30 μg disc)", "setting": "[2]; strain Farm 1 2011/5", "value": "S"},
      {"measurement": "Susceptibility to (30 μg disc)", "setting": "[2]; strain Farm 1 2011/6", "value": "S"},
      {"measurement": "Susceptibility to (30 μg disc)", "setting": "[2]; strain Farm 2 2011/1", "value": "S"},
      {"measurement": "Susceptibility to (30 μg disc)", "setting": "[2]; strain Farm 2 2011/2", "value": "S"},
      {"measurement": "Susceptibility to (30 μg disc)", "setting": "[2]; strain Farm 2 2011/3", "value": "S"},
      {"measurement": "Susceptibility to (30 μg disc)", "setting": "[2]; strain Farm 2 2011/4", "value": "S"},
      {"measurement": "Susceptibility to (30 μg disc)", "setting": "[2]; strain Farm 3 2011/1", "value": "S"},
      {"measurement": "Susceptibility to (30 μg disc)", "setting": "[2]; strain Farm 3 2011/2", "value": "S"},
      {"measurement": "Susceptibility to (30 μg disc)", "setting": "[2]; strain Farm 3 2011/3", "value": "S"},
      {"measurement": "Susceptibility to (30 μg disc)", "setting": "[2]; strain Farm 4 2011/1", "value": "S"},
      {"measurement": "Susceptibility to (30 μg disc)", "setting": "[2]; strain Farm 4 2011/2", "value": "S"},
      {"measurement": "Susceptibility to (30 μg disc)", "setting": "[2]; strain Farm 4 2011/3", "value": "S"},
      {"measurement": "resistance (share of strains positive)", "setting": "[2]; taxon A: Campylobacter novel (n=23)", "value": "− (−, 0-10% of strains positive)"},
      {"measurement": "resistance (share of strains positive)", "setting": "C. avium sp. Nov", "value": "− (−, 0-10% of strains positive)"},
      {"measurement": "resistance (share of strains positive)", "setting": "C. concisus", "value": "(+) ((+), 75-89% strains positive)"},
      {"measurement": "resistance (share of strains positive)", "setting": "C. showae", "value": "− (−, 0-10% of strains positive)"},
      {"measurement": "resistance (share of strains positive)", "setting": "C. lanienae", "value": "+ (+, 90-100% of strains positive)"},
      {"measurement": "resistance (share of strains positive)", "setting": "C. jejuni subsp. Doylei", "value": "− (−, 0-10% of strains positive)"},
      {"measurement": "resistance (share of strains positive)", "setting": "C. lari", "value": "V (V, 26-74% of strains positive)"},
      {"measurement": "resistance (share of strains positive)", "setting": "C. canadensis", "value": "V (V, 26-74% of strains positive)"},
      {"measurement": "resistance (share of strains positive)", "setting": "C. rectus", "value": "(+) ((+), 75-89% strains positive)"},
      {"measurement": "resistance (share of strains positive)", "setting": "[3]", "value": "V (V, 26-74% of strains positive)"},
      {"measurement": "resistance (share of strains positive)", "setting": "[4]", "value": "+ (+, 90-100% of strains positive)"},
      {"measurement": "resistance (share of strains positive)", "setting": "C. sputorum", "value": "(+) ((+), 75-89% strains positive)"},
      {"measurement": "resistance (share of strains positive)", "setting": "[5]", "value": "+ (+, 90-100% of strains positive)"},
      {"measurement": "resistance (share of strains positive)", "setting": "C. hominus", "value": "V (V, 26-74% of strains positive)"},
      {"measurement": "resistance (share of strains positive)", "setting": "C. helveticus", "value": "− (−, 0-10% of strains positive)"},
      {"measurement": "resistance (share of strains positive)", "setting": "C. mucosalis", "value": "(+) ((+), 75-89% strains positive)"},
      {"measurement": "resistance (share of strains positive)", "setting": "C. upsaliensis", "value": "− (−, 0-10% of strains positive)"}
    ]}
  ]
}
